Data set [1] can be described thus: Example 2: serum creatine kinase and AST/ALT after systemic injection. Type of data set: in vivo, mdx mice. The note with it: intravenous 25, 50 and 100 mg/kg. An excerpt: To develop AO splice correction therapy for DMD it is essential to establish effective systemic dystrophin correction since DMD is a systemic disease affecting all skeletal muscles, including the diaphragm, and cardiac muscle. Other AO chemistries, including 2′OMePS and PMO chemistries, have been reported to yield variable dystrophin splice correction following intravenous systemic delivery in mdx mice, with high systemic doses being required to detect appreciable efficacy. Here we wished to evaluate the potential of neutral PNA AOs for systemic splice correction in body-wide muscles, and initially evaluated a dose-response using three intravenous single PNA doses of 25, 50 and 100 mg/kg administered to 6 week old mdx mice via tail vein injections. Dystrophin expression was studied by immunostaining of muscle tissue sections from various peripheral muscles (including quadriceps, gastrocnemius, biceps, abdominal wall, diaphragm) and heart muscle three weeks after AO administration (FIG. 7A). […] Measures of phenotypic correction, including serum biochemical measurements of creatine kinase and AST/ALT enzyme levels were negative (FIGS. 7C and D).
Serum and plasma were taken from the mouse jugular vein immediately after the killing with CO2 inhalation. […]

Data set [2] relates to H2K mdx cells. Nature of the data set: WST-1 cell viability assay in H2K mdx cells. In kind it is cell-based, mouse. The settings on record: 2.5 μM to 25 μM, 12 hours. Here is the method: The possible toxicity of the PNA-peptide conjugates in H2K mdx cells was examined using a WST-1 assay, which measures the metabolic activity of viable cells. Cells were grown in 96-well microplates overnight and treated with unmodified PNA as a control or PNA-peptide conjugates for 12 hours, and then incubated with WST-1 for approximately 4 hours. During this incubation period, viable cells convert WST-1 to a water-soluble formazan dye which is then quantified using an ELISA plate reader.

The subject of data set [3] is exon and intron 23 of the dystrophin gene. The experiment in a line: Example 2: intramuscular injection into TA muscle, dystrophin-positive fibres by immunohistochemistry. In kind it is in vivo, mdx mice. An excerpt:
Here we aim to evaluate the potential of PNA AOs as splice correcting therapeutic agents for DMD, by studying their activity under a range of conditions in mdx mice carrying a nonsense mutation in exon 23 of the dystrophin gene. PNAs and PNA-pepide conjugates were studied following intramuscular delivery into adult (6-8 week old) mdx tibialis anterior (TA) muscles or via systemic intravenous tail vein delivery in mdx mice unless otherwise stated.
(§1) For intramuscular studies the TA muscle of each experimental mdx mouse was injected with a […] dose of PNA and PNA-peptide conjugates with saline at a final concentration of 125 μg/ml. For systemic intravenous injections, Various amount of PNA or PNA-peptide conjugates in 80 μl saline buffer were injected into tail vein of mdx mice at the final dose of 25 mg/kg, 50 mg/kg and 100 mg/kg, respectively. The animals were killed at various time points after injection by CO2 inhalation and tissues were removed and snap-frozen in liquid nitrogen-cooled isopentane and stored at −80° C.
Sections of 8 μm were cut from at least two-thirds of the muscle length of TA, quadriceps, gastrocnemius, biceps, abdominal wall and diaphragm muscles and cardiac muscle at 100 μm intervals. The sections were then examined for dystrophin expression with a polyclonal antibody 2166 against the dystrophin carboxyl-terminal region. The maximum number of dystrophin-positive fibres in one section was counted using the Zeiss AxioVision fluorescence microscope. The intervening muscle sections were collected either for RT-PCR analysis and Western blot or as serial sections for immunohistochemistry. Polyclonal antibodies were detected by goat-anti-rabbit IgGs Alexa Fluro 594 (Molecular Probe, UK). […]

The test system is the same in data set [4]. The experiment in a line: Example 2: systemic intravenous injection, Western blot of dystrophin. Type of data set: in vivo, mdx mice. The settings on record: intravenous 25, 50 and 100 mg/kg. An excerpt:
(§2) To develop AO splice correction therapy for DMD it is essential to establish effective systemic dystrophin correction since DMD is a systemic disease affecting all skeletal muscles, including the diaphragm, and cardiac muscle. Other AO chemistries, including 2′OMePS and PMO chemistries, have been reported to yield variable dystrophin splice correction following intravenous systemic delivery in mdx mice, with high systemic doses being required to detect appreciable efficacy. Here we wished to evaluate the potential of neutral PNA AOs for systemic splice correction in body-wide muscles, and initially evaluated a dose-response using three intravenous single PNA doses of 25, 50 and 100 mg/kg administered to 6 week old mdx mice via tail vein injections. […]
The collected sections were placed in a 1.5 ml polypropylene eppendorf tube (Anachem, UK) on dry ice. […] The supernatant was collected and the protein concentration was quantified by Bradford assay (Sigma, UK). […] The bound primary antibody was detected by horseradish peroxidise-conjugated rabbit anti-mouse IgGs and the ECL Western Blotting Analysis system (Amersham Pharmacia Biosciences, UK). The intensity of the bands obtained from treated mdx muscles was measured by Image J software; the quantification is based on band intensity and area, and is compared with that from normal muscles of C57BL6 mice.
A general note: Immunoblotting shows a protein as a band on a membrane.

For data set [5] the test system is unchanged. The experiment in a line: Example 2: intramuscular injection, nested RT-PCR of exon skipping. The note with it: 5 ug intramuscular, 4 weeks after injection (peak). Type of data set: in vivo, mdx mice. As to the method:
Total RNA was extracted from tested muscle tissues with Trizol (Invitrogen, UK) and 200 ng of RNA template was used for 20 μl RT-PCR with OneStep RT-PCR kit (Qiagen, UK). The primer sequences for the initial RT-PCR were Exon20Fo 5′-[…]-3′ and Ex26Ro 5′-[…]-3′ for amplification of messenger RNA from exons 20 to 26. The cycle conditions were 95° C. for 30 seconds, 55° C. for 1 minute and 72° C. for 2 minutes for 25 cycles. RT-PCR product (1 μl) was then used as the template for secondary PCR performed in […] with 0.5 U Taq DNA polymerase (Invitrogen, UK). The primer sequences for the second round were Ex20Fi 5′-[…]-3′ and Ex24Ri 5′-[…]-3. The cycle conditions were 95° C. for 1 minute, 57° C. for 1 minute, and 72° C. for 2 min for 25 cycles. The products were examined by electrophoresis on a 2% agarose gel.
as §1

Data set [6] shares this test system. The experiment in a line: Example 2: systemic intravenous tail vein injection, dystrophin immunostaining of muscles. Type of data set: in vivo, mdx mice.
Excerpt: as §2
Sections of 8 μm were cut from at least two-thirds of the muscle length of TA, quadriceps, gastrocnemius, biceps, abdominal wall and diaphragm muscles and cardiac muscle at 100 μm intervals. […] The maximum number of dystrophin-positive fibres in one section was counted using the Zeiss AxioVision fluorescence microscope. […] Polyclonal antibodies were detected by goat-anti-rabbit IgGs Alexa Fluro 594 (Molecular Probe, UK). Polyclonal antibodies were detected by goat-anti-rabbit IgGs Alexa 594 (Molecular Probe, UK).

As for 5′-ggccaaaccteggcttacct-3′ [PNA], the “phenotypic correction: serum creatine kinase and AST/ALT enzyme levels” value in data set [1] is “negative”. The “Toxicity or inhibition of cell proliferation (WST-1)” value in data set [2] is reported as “not observed”. The “number of dystrophin-positive fibres” value in data set [3] (12-month old mdx mice, 5 ug intramuscular into TA, two weeks) was 388±24; in data set [3] (two month old mdx mice, 5 ug intramuscular, 8 week time point (peak)) it was “greater than 650”. The “persistence of splice correction effect” value in data set [3] (two month old mdx mice, 5 ug intramuscular) was “greater than 20 weeks”. Also, in data set [4], the “dystrophin protein (Western blot)” value is given as “Under detectable level”. Besides, the “targeted dystrophin transcripts showing splice correction (RT-PCR)” value in data set [5] is reported as “about 50%”. In data set [6] (intravenous 25, 50 and 100 mg/kg), the “dose response of dystrophin positive fibres” value is listed as “No evidence of a dose response”. Moreover, the “number of dystrophin positive fibres in peripheral muscles and heart” value in data set [6] (single intravenous 25, 50 and 100 mg/kg, 6 week old mdx mice, three weeks, all muscle groups except diaphragm and heart) was “low nevertheless showing a significant increase”.
